Data: US20260042770A1, “NOVEL SULFONES AND THEIR USE AS NEUROPROTECTIVE AND/OR NEURORESTORATIVE AGENTS” (GENECODE, priority 2022, published 2026)

What follows are compounds tested against T1, GFRα1-RET (Homo sapiens, UniProt P56159) (assay: Elk1 luciferase reporter-gene assay in cells expressing GFRα1-RET). Conditions: agonist/activator activity of Elk1 signaling; MG87 murine fibroblast stably transfected with PathDetect Elk-1, GFRα1 and RET; 6 concentrations, duplicate, two independent runs.
T1 construct: expressed in transfected cells; host or cells: MG87 murine fibroblasts stably transfected with PathDetect Elk-1, GFRα1 and RET
T1 sequence (P56159 25-429 limits assumed): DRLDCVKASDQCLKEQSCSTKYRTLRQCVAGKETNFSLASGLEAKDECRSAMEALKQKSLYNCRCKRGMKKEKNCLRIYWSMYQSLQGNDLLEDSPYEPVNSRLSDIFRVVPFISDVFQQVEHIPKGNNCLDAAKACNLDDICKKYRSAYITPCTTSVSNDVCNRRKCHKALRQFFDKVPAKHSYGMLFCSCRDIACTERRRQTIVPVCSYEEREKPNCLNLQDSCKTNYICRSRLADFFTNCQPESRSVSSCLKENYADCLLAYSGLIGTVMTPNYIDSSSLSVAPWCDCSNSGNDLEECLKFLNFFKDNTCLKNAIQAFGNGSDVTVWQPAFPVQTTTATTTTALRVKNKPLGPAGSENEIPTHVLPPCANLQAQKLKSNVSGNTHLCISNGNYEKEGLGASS
Type: cell-based
Method: For EC50 determination, a dose-response test was performed using 6 concentrations of each tested compound. Dose-response curves were fitted using the sigmoidal dose-response (variable slope) analysis in GraphPad Prism program (Graph Pad Inc) and EC50 of agonist/activator activity was calculated. Dose-response experiments were all performed in duplicate, two times independently.

Structure (SMILES) | EC50 [µM]
COc1ccc(S(=O)(=O)C2CCCC2)cc1N1CCN(C(=O)c2ccc(F)cc2Cl)CC1C (racemic) [Cpd 006, (2-chloro-4-fluoro-phenyl)-[rac-(3S)-4-(5-cyclopentylsulfonyl-2-methoxy-phenyl)-3-methyl-piperazin-1-yl]methanone] | 1 to 10
CCC(CC)S(=O)(=O)c1ccc(OC)c(N2CCN(C(=O)c3ccc(F)cc3Cl)CC2C)c1 (racemic) [Cpd 007, (2-chloro-4-fluoro-phenyl)-[rac-(3S)-4-[5-(1-ethylpropylsulfonyl)-2-methoxy-phenyl]-3-methyl-piperazin-1-yl]methanone] | 1 to 10
CCCC(C)S(=O)(=O)c1ccc(OC)c(N2CCN(C(=O)c3ccc(F)cc3Cl)CC2C)c1 (racemic) [Cpd 016] | 1 to 10
CCC(C)S(=O)(=O)c1ccc(OC)c(N2C3CCC2CN(C(=O)c2ccc(F)cc2Cl)C3)c1 (racemic) [Cpd 022, (2-chloro-4-fluoro-phenyl)-[(1S,5R)-8-[2-methoxy-5-[(1SR)-1-methylpropyl]sulfonyl-phenyl]-3,8-diazabicyclo[3.2.1]octan-3-yl]methanone] | 1 to 10
COc1ccc(S(=O)(=O)C(C)CCc2ccccc2)cc1N1C2CCC1CN(C(=O)c1ccc(F)cc1Cl)C2 (racemic) [Cpd 023, (2-chloro-4-fluoro-phenyl)-[(1S,5R)-8-[2-methoxy-5-[(1SR)-1-methyl-3-phenyl-propyl]sulfonyl-phenyl]-3,8-diazabicyclo[3.2.1]octan-3-yl]methanone] | 1 to 10
COc1ccc(S(=O)(=O)C(C)CCCc2ccccc2)cc1N1C2CCC1CN(C(=O)c1ccc(F)cc1Cl)C2 (racemic) [Cpd 024, (2-chloro-4-fluoro-phenyl)-[(1S,5R)-8-[2-methoxy-5-[(1SR)-1-methyl-4-phenyl-butyl]sulfonyl-phenyl]-3,8-diazabicyclo[3.2.1]octan-3-yl]methanone] | 1 to 10
CCC(CCc1ccccc1)S(=O)(=O)c1ccc(OC)c(N2C3CCC2CN(C(=O)c2ccc(F)cc2Cl)C3)c1 (racemic) [Cpd 025, (2-chloro-4-fluoro-phenyl)-[(1S,5R)-8-[5-[(1SR)-1-ethyl-3-phenyl-propyl]sulfonyl-2-methoxy-phenyl]-3,8-diazabicyclo[3.2.1]octan-3-yl]methanone] | 1 to 10
CCC(CCCc1ccccc1)S(=O)(=O)c1ccc(OC)c(N2C3CCC2CN(C(=O)c2ccc(F)cc2Cl)C3)c1 (racemic) [Cpd 026, (2-chloro-4-fluoro-phenyl)-[(1S,5R)-8-[5-[(1SR)-1-ethyl-4-phenyl-butyl]sulfonyl-2-methoxy-phenyl]-3,8-diazabicyclo[3.2.1]octan-3-yl]methanone] | 1 to 10
CCC(CC)S(=O)(=O)c1ccc(OC)c(N2CCN(C(=O)c3ccc(F)cc3C(F)(F)F)CC2)c1 [Cpd 001, [4-[5-(1-ethylpropylsulfonyl)-2-methoxy-phenyl]piperazin-1-yl]-[4-fluoro-2-(trifluoromethyl)phenyl]methanone] | 10 to 50
COc1ccc(S(=O)(=O)C2CCCC2)cc1N1CCN(C(=O)c2ccc(F)cc2C(F)(F)F)CC1 [Cpd 002, [4-(5-cyclopentylsulfonyl-2-methoxy-phenyl)piperazin-1-yl]-[4-fluoro-2-(trifluoromethyl)phenyl]methanone] | 10 to 50
COc1ccc(S(=O)(=O)C2CCCCC2)cc1N1CCN(C(=O)c2ccc(F)cc2C(F)(F)F)CC1 [Cpd 003, [4-(5-cyclohexylsulfonyl-2-methoxy-phenyl)piperazin-1-yl]-[4-fluoro-2-(trifluoromethyl)phenyl]methanone] | 10 to 50
COc1ccc(S(=O)(=O)C2CCCC2)cc1N1[C@@H]2CC[C@H]1CN(C(=O)c1ccc(F)cc1Cl)C2 [Cpd 004, (2-chloro-4-fluoro-phenyl)-[(1S,5R)-8-(5-cyclopentylsulfonyl-2-methoxy-phenyl)-3,8-diazabicyclo[3.2.1]octan-3-yl]methanone] | 1 to 10
CCC(CC)S(=O)(=O)c1ccc(OC)c(N2[C@@H]3CC[C@H]2CN(C(=O)c2ccc(F)cc2Cl)C3)c1 [Cpd 005, (2-chloro-4-fluoro-phenyl)-[(1S,5R)-8-[5-(1-ethylpropylsulfonyl)-2-methoxy-phenyl]-3,8-diazabicyclo[3.2.1]octan-3-yl]methanone] | 1 to 10
COc1ccc(S(=O)(=O)C(C)C)cc1N1CCN(C(=O)c2ccc(F)cc2Cl)CC1 [Cpd 008, (2-chloro-4-fluoro-phenyl)-[4-(5-isopropylsulfonyl-2-methoxy-phenyl)piperazin-1-yl]methanone] | 10 to 50
COc1ccc(S(=O)(=O)CC2CC2)cc1N1CCN(C(=O)c2ccc(F)cc2Cl)CC1 [Cpd 009, (2-chloro-4-fluoro-phenyl)-[4-[5-(cyclopropylmethylsulfonyl)-2-methoxy-phenyl]piperazin-1-yl]methanone] | 1 to 10
COc1ccc(S(=O)(=O)C2CCC2)cc1N1[C@@H]2CC[C@H]1CN(C(=O)c1ccc(F)cc1Cl)C2 [Cpd 010, (2-chloro-4-fluoro-phenyl)-[(1S,5R)-8-(5-cyclobutylsulfonyl-2-methoxy-phenyl)-3,8-diazabicyclo[3.2.1]octan-3-yl]methanone] | 1 to 10
COc1ccc(S(=O)(=O)C2COC2)cc1N1CCN(C(=O)c2ccc(F)cc2Cl)CC1 [Cpd 011, (2-chloro-4-fluoro-phenyl)-[4-[2-methoxy-5-(oxetan-3-ylsulfonyl)phenyl]piperazin-1-yl]methanone] | 10 to 50
COc1ccc(S(=O)(=O)CC2CCC2)cc1N1CCN(C(=O)c2ccc(F)cc2Cl)CC1 [Cpd 012, (2-chloro-4-fluoro-phenyl)-[4-[5-(cyclobutylmethylsulfonyl)-2-methoxy-phenyl]piperazin-1-yl]methanone] | 10 to 50
COc1ccc(S(=O)(=O)CC2CCCC2)cc1N1CCN(C(=O)c2ccc(F)cc2Cl)CC1 [Cpd 013, (2-chloro-4-fluoro-phenyl)-[4-[5-(cyclopentylmethylsulfonyl)-2-methoxy-phenyl]piperazin-1-yl]methanone] | 1 to 10
COc1ccc(S(=O)(=O)Cc2ccccc2)cc1N1[C@@H]2CC[C@H]1CN(C(=O)c1ccc(F)cc1Cl)C2 [Cpd 014, [(1S,5R)-8-(5-benzylsulfonyl-2-methoxy-phenyl)-3,8-diazabicyclo[3.2.1]octan-3-yl]-(2-chloro-4-fluoro-phenyl)methanone] | 10 to 50
COc1ccc(S(=O)(=O)CC(C)(C)C)cc1N1[C@@H]2CC[C@H]1CN(C(=O)c1ccc(F)cc1Cl)C2 [Cpd 015, (2-chloro-4-fluoro-phenyl)-[(1S,5R)-8-[5-(2,2-dimethylpropylsulfonyl)-2-methoxy-phenyl]-3,8-diazabicyclo[3.2.1]octan-3-yl]methanone] | 1 to 10
COc1ccc(S(=O)(=O)CC(C)C)cc1N1CCN(C(=O)c2ccc(F)cc2C(F)(F)F)CC1 [Cpd 018, [4-fluoro-2-(trifluoromethyl)phenyl]-[4-(5-isobutylsulfonyl-2-methoxy-phenyl)piperazin-1-yl]methanone] | 10 to 50
COc1ccc(S(=O)(=O)CCC2CCCC2)cc1N1[C@@H]2CC[C@H]1CN(C(=O)c1ccc(F)cc1Cl)C2 [Cpd 019, (2-chloro-4-fluoro-phenyl)-[(1S,5R)-8-[5-(2-cyclopentylethylsulfonyl)-2-methoxy-phenyl]-3,8-diazabicyclo[3.2.1]octan-3-yl]methanone] | 1 to 10
CCCCS(=O)(=O)c1ccc(OC)c(N2[C@@H]3CC[C@H]2CN(C(=O)c2ccc(F)cc2Cl)C3)c1 [Cpd 020, [(1S,5R)-8-(5-butylsulfonyl-2-methoxy-phenyl)-3,8-diazabicyclo[3.2.1]octan-3-yl]-(2-chloro-4-fluoro-phenyl)methanone] | 1 to 10
CCC(CC)CS(=O)(=O)c1ccc(OC)c(N2[C@@H]3CC[C@H]2CN(C(=O)c2ccc(F)cc2Cl)C3)c1 [Cpd 021, (2-chloro-4-fluoro-phenyl)-[(1S,5R)-8-[5-(2-ethylbutylsulfonyl)-2-methoxy-phenyl]-3,8-diazabicyclo[3.2.1]octan-3-yl]methanone] | 1 to 10
COc1ccc(S(=O)(=O)C2CCN(c3ccccc3)CC2)cc1N1[C@@H]2CC[C@H]1CN(C(=O)c1ccc(F)cc1Cl)C2 [Cpd 027, (2-chloro-4-fluoro-phenyl)-[(1S,5R)-8-[2-methoxy-5-[(1-phenyl-4-piperidyl)sulfonyl]phenyl]-3,8-diazabicyclo[3.2.1]octan-3-yl]methanone] | < 1
COc1ccc(S(=O)(=O)C2CCN(CCc3ccccc3)CC2)cc1N1[C@@H]2CC[C@H]1CN(C(=O)c1ccc(F)cc1Cl)C2 [Cpd 028, (2-chloro-4-fluoro-phenyl)-[(1S,5R)-8-[2-methoxy-5-[[1-(2-phenylethyl)-4-piperidyl]sulfonyl]phenyl]-3,8-diazabicyclo[3.2.1]octan-3-yl]methanone] | 1 to 10
COc1ccc(S(=O)(=O)C2CCN(CCc3ccc(F)cc3)CC2)cc1N1[C@@H]2CC[C@H]1CN(C(=O)c1ccc(F)cc1Cl)C2 [Cpd 029, (2-chloro-4-fluoro-phenyl)-[(1S,5R)-8-[5-[[1-[2-(4-fluorophenyl)ethyl]-4-piperidyl]sulfonyl]-2-methoxy-phenyl]-3,8-diazabicyclo[3.2.1]octan-3-yl]methanone] | 1 to 10
